The values below come from US9394299B2, “Rilyazine derivatives and compositions for the treatment of cancer” (Warner Babcock Institute for Green Chemistry, LLC, priority 2013, dated 2016).

Structures are written as SMILES.

Assay [1] deals with MDA-MB-231/ATCC (Breast). As to the kind of experiment: NCI single point 10 μM, MDA-MB-231/ATCC. It is filed as cell-based, human. The following applies: 10^−5 M. The procedure:
The screening is a two-stage process, beginning with the evaluation of all compounds against 60 cell lines at a single dose of 10^−5 M.
(§1) The human tumor cell lines of the cancer screening panel are grown in RPMI 1640 medium containing 5% fetal bovine serum and 2 mM L-glutamine. Cells are inoculated into 96 well microtiter plates in 100 μL at plating densities ranging from 5,000 to 40,000 cells/well depending on the doubling time of individual cell lines. After cell inoculation, the microtiter plates are incubated at 37° C., 5% CO2, 95% air and 100% relative humidity for 24 h prior to addition of experimental drugs. […]
(§2) Following drug addition, the plates are incubated for an additional 48 h at 37° C., 5% CO2, 95% air, and 100% relative humidity. […] Bound stain is subsequently solubilized with 10 mM trizma base, and the absorbance is read on an automated plate reader at a wavelength of 515 nm. […]
For the 1-dose 60 cell testing, the Growth Percent is calculated for each cell line/drug combination from the absorbance measurement for the no-drug control (C), the absorbance at time zero (Tz) and the absorbance measurement after incubation of the cells in the presence of drug (Ti): Growth Percent=[(Ti−Tz)/(C−Tz)]×100 for cell line/drug combinations for which Ti≧Tz. […]

Assay [2] has as its system OVCAR-5 (ovarian cancer). As to the kind of experiment: NCI five point dosing, OVCAR-5. It is filed as cell-based, human. The procedure: RL-4 was evaluated against the 60 cell panel at five concentration levels, 10^−8 M, 10^−7 M, 10^−6 M, 10^−5 M and 10^−4 M.
as §1, §2
The percentage growth is calculated at each of the five drug concentrations levels using the seven absorbance measurements, namely absorbance at time zero (Tz), absorbance of control after incubation (C), and absorbance of test sample after incubation in the presence of drug at each of the five concentration levels (Ti). The Growth Percent is calculated as it was for the 1 dose assay: Growth Percent=[(Ti−Tz)/(C−Tz)]×100 for cell line/drug combinations for which Ti≧Tz. […]

The subject of assay [3] is MCF-7 cells. Put plainly: MTT cell proliferation assay, MCF-7. It is filed as cell-based. The following applies: 72 h-exposure, 30-0.041 μM. The procedure:
(§3) In vitro characterizing of the effects of rilyazine analogs on cell proliferation and apoptosis in the paired epithelial/mesenchymal lines (Colo205/Colo-R, DLD/DLD-SNAIL and MCF7/MCF7-WISP) was performed in an independent laboratory.
(§4) The Dose Preparation is based on a reconstitute in DMSO. The Concentration of the stock solution is 100 mM. Storage of the stock solution is under −80° C.
(§5) Working drug solution of rilyazine analogs: A stock solution of 100 mM OTX015 in DMSO was prepared and stored at −80° C. For growth inhibition studies, dilution series were prepared by (1) diluting stock solution into DMSO, then (2) diluting 1:300 in culture medium supplemented with 10% FBS giving a final concentration in 0.3% DMSO in the 96-well plates.
(§6) Cell lines. Cells lines were maintained in RPMI 1640 (PAA Laboratories, France) supplemented with 10% fetal bovine serum (FBS; PAA Laboratories, France), 2 mM glutamine (PAA Laboratories, France), 100 units/ml penicillin and 100 μg/ml streptomycin (PAA Laboratories, France). Cells were free of Mycoplasma.
(§7) Proliferation assays. Cell proliferation was determined using the MTT assay (3-[4,5-dimethylthiazol-2-yl]-2,5-diphenyltetrazolium bromide; Sigma-Aldrich, St. Louis, Mo.). […] After incubation, the supernatant was discarded, the cell pellet was resuspended in 0.1 mL DMSO, and the absorbance was measured at 560 nm using a microplate reader (Thermo, France). […]

The subject of assay [4] is MCF-shWISP cells. As to the kind of experiment: MTT cell proliferation assay, MCF-shWISP. It is filed as cell-based. The settings on record: 72 h-exposure, 30-0.041 μM. The procedure: as §3, §4, §5, §6, §7
(In general: Tetrazolium assays rely on reduction of a dye to a coloured formazan, in cell work by metabolically active cells.)

For the molecule `S=c1c2ncccc2c(-c2ccccn2)nn1C1CCCCC1` [RL-4, 7-cyclohexyl-5-(pyridin-2-yl)pyrido[2,3-d]pyridazine-8(7H)-thione], the “Growth Percent” value in assay [1] was found to be 129.23%; in assay [2] (10^−4 M dose) it was 54%. In assay [2] (Homo sapiens, five point dosing), the GI50 (usually the concentration that inhibits growth by half) is over 100 µM. Further, the “anti-proliferative effects (in words)” value in assay [3] and in assay [4] was “dose-dependent anti-proliferative effects” in each case.
